Test results reported in ChEMBL document CHEMBL1129142, “Synthesis of azido derivatives of semotiadil, a novel 1,4-benzothiazine calcium antagonist, for photoaffinity probes of calcium channels” (Bioorg Med Chem Lett, 1996).

What was measured:
[1] = [Ca2+] antagonistic activity was measured with isolated depolarized guinea pig taenia cecum.; format: functional, tissue-based, Cavia porcellus, Caecum
[2] = Displacement of [3H]semotiadil from L-type calcium channel of rabbit skeletal muscle; format: tissue-based, Oryctolagus cuniculus, Muscle tissue
[3] = [Ca2+] antagonistic activity was measured with isolated depolarized guinea pig taenia cecum.(test 1); format: functional, tissue-based, Cavia porcellus, Caecum
[4] = [Ca2+] antagonistic activity was measured with isolated depolarized guinea pig taenia cecum.(test 2); format: functional, tissue-based, Cavia porcellus, Caecum

Row | Compound | IC50 [1] | Ki [2] | IC50 [3] | IC50 [4]
1 | COc1ccc(OCCCN(C)CCOc2ccc3c(c2)OCO3)c([C@H]2Sc3ccccc3N(CCN=[N+]=[N-])C2=O)c1 | 275 nM | – | – | –
2 | COc1ccc(OCCCN(C)CCOc2cccc(N=[N+]=[N-])c2)c([C@H]2Sc3ccccc3N(C)C2=O)c1 | 654 nM | 2670 nM | – | –
3 | COc1ccc(OCCCN(C)CCOc2ccc3c(c2)OCO3)c([C@H]2Sc3ccccc3N(CCCCN=[N+]=[N-])C2=O)c1 | 537 nM | – | – | –
4 | COc1ccc(OCCCN(C)CCOc2cccc(N=[N+]=[N-])c2)c(C2Sc3ccccc3N(C)C2=O)c1 (centres undefined) | – | – | 427 nM | 1380 nM
5 | COc1ccc(OCCCN(C)CCOc2ccc3c(c2)OCO3)c([C@H]2Sc3ccccc3N(C)C2=O)c1 [SEMOTIADIL] | – | 121 nM | 42.7 nM | 54.5 nM
